Results reported in PubChem BioAssay AID2060510 (Molecular Pharmacology Branch, DTP, NCI, 2025).

System: 439559-082-T-J2-PDC spheroids viability
Assay: Anticancer human tumor 439559-082-T-J2-PDC patient-derived colon adenocarcinoma cell line growth inhibition [GQUAD]
Settings: for IC50: curve of first compound; for viability, T/C: stronger effect = lower value
Description: DNA G-quadruplex Stabilizer Agents in Combinations in Complex Spheroids
A high-throughput screen of multi-cell type tumor spheroids was designed to identify active combinations of DNA G-quadruplex stabilizer agents and targeted small molecules. Complex spheroids include a stromal component modeled by human endothelial cells (HUVEC) and fibroblasts modeled by human mesenchymal stem cells (MSCs). The concentration ranges selected for each drug and investigational agent were based upon clinically achievable concentrations if the clinical Cmax of the agent was known.
Compounds. The drugs and investigational agents: pidnarulex (CX-5461; NSC782164), APTO-253 (NSC789042), BRACO-19 (NSC847499), peposertib (NSC802822), ceralasertib (NSC780249), elimusertib (NSC800525), camonsertib (NSC841442), AZD-1390 (NSC803789), olaparib (NSC753686), talazoparib (NSC767125), ART-558 (NSC835418), sotorasib (NSC818433), MRTX-1133 (NSC836407), SN-38 (NSC673596), topotecan (NSC609699), etoposide (NSC141540), doxorubicin (NSC123127), gemcitabine (NSC613327), 5-fluorouracil (NSC19893), paclitaxel (NSC125973), vemurafenib (NSC761431), panobinostat (NSC761190), R-306465 (JNJ-16241199; NSC773264), adavosertib (NSC754352), TP-3654 (NSC805149), carboplatin (NSC241240), KSQ-4279 (NSC840948), and staurosporine (NSC755774) were obtained from the National Cancer Institute (NCI) Developmental Therapeutics Program Chemical Repository (34). The FDA-approved anticancer drug set is available from the NCI Developmental Therapeutics Program. […] The stock solutions were prepared in dimethyl sulfoxide (DMSO, Sigma-Aldrich, St. Louis, MO, cat. D2650) at 800-fold the tested concentration and stored at -70 degrees C prior to their use. All drugs and investigational agents were tested over a range starting from a high concentration at or near the clinical Cmax and decreasing in half-log increments. If the clinical Cmax for an agent had not been determined, the highest concentration tested was 10 microM.
2.3 Cell Culture. All cells were maintained in an incubator at 37 degrees C and 5% CO2 with 95% humidity. The PDC lines were cultured according to standard operating procedures established by the NCI PDMR. All PDCs were thawed and cultured in Matrigel-coated flasks prepared with a working solution of 1X Ham's F-12 nutrient mix, without supplementation (Invitrogen, cat. 11765054), 100 U/mL penicillin-streptomycin (Invitrogen, cat. 15140122), and 2.5% Matrigel (Corning Inc., cat. 354248) for the first three passages. The 857933-349-R-J2-PDC line was cultured in 6C/Colon 1B media, which includes advanced DMEM/F-12 (Thermo Fisher Scientific, cat. 12634028), 10 mM HEPES (Thermo Fisher Scientific, cat. 15630080), 1X GlutaMAX supplement (Thermo Fisher Scientific, cat. 35050061), 0.1 mg/mL primocin (InvivoGen, cat. ant-pm-2), 10% defined fetal bovine serum, heat inactivated (HyClone Laboratories Inc., cat. SH30070.03HI), 50% L-WRN conditioned media (ATCC, cat. CRL-3276), 1.25 mM N-Acetyl-L-cysteine (Sigma-Aldrich, cat. A9165), 10 mM nicotinamide (Sigma-Aldrich, cat. N0636), 1X B-27 supplement (Thermo Fisher Scientific, cat. 17504044), 1X N-2 supplement (Thermo Fisher Scientific, cat. 17502048), 10 microM Y-27632 dihydrochloride (Tocris Bioscience, cat. 1254), and 50 ng/mL human EGF recombinant protein (Thermo Fisher Scientific, cat. PHG0311). The 485176-168-R4-J1-PDC line was cultured in Panc media, which includes all 6C/Colon 1B media components plus 100 ng/mL human FGF-10 (Thermo Fisher Scientific, cat. 100-26), 500 nM SB-431542 (Selleckchem, cat. S1067), and gastrin (Tocris, cat. 3006).
[…]
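Also: spheroids exposed to the agents for 7 days before readout.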
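For viability, T/C in this document: percent of luminescence signal in DMSO vehicle wells taken as 100% viability.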

## Cn1ncnc1[C@H]1c2n[nH]c(=O)c3cc(F)cc(c23)N[C@@H]1c1ccc(F)cc1 + Cc1cnc(CNC(=O)c2c(=O)c3ccc(N4CCCN(C)CC4)nc3n3c2sc2ccccc23)cn1
Second compound 0.0316 µM
  IC50: > 316 nM
Second compound 0.1 µM
  IC50: > 316 nM
Second compound 0.316 µM
  IC50: > 316 nM
Second compound 1 µM
  IC50: > 316 nM
Second compound 3.16 µM
  IC50: > 316 nM
Second compound 10 µM
  IC50: > 316 nM
Second compound 0.0316 µM, first compound 0.000999 µM
  viability, T/C: 96.2%
Second compound 0.0316 µM, first compound 0.00316 µM
  viability, T/C: 92%
Second compound 0.0316 µM, first compound 0.00999 µM
  viability, T/C: 102%
Second compound 0.0316 µM, first compound 0.0316 µM
  viability, T/C: 99.7%
Second compound 0.0316 µM, first compound 0.0999 µM
  viability, T/C: 103%
Second compound 0.0316 µM, first compound 0.316 µM
  viability, T/C: 94.8%
Second compound 0.1 µM, first compound 0.000999 µM
  viability, T/C: 109%
Second compound 0.1 µM, first compound 0.00316 µM
  viability, T/C: 84.8%
Second compound 0.1 µM, first compound 0.00999 µM
  viability, T/C: 95.8%
Second compound 0.1 µM, first compound 0.0316 µM
  viability, T/C: 88%
Second compound 0.1 µM, first compound 0.0999 µM
  viability, T/C: 87.3%
Second compound 0.1 µM, first compound 0.316 µM
  viability, T/C: 79.6%
Second compound 0.316 µM, first compound 0.000999 µM
  viability, T/C: 93.8%
Second compound 0.316 µM, first compound 0.00316 µM
  viability, T/C: 85.5%
Second compound 0.316 µM, first compound 0.00999 µM
  viability, T/C: 93%
Second compound 0.316 µM, first compound 0.0316 µM
  viability, T/C: 82.6%
Second compound 0.316 µM, first compound 0.0999 µM
  viability, T/C: 88.6%
Second compound 0.316 µM, first compound 0.316 µM
  viability, T/C: 74.4%
Second compound 1 µM, first compound 0.000999 µM
  viability, T/C: 72.2%
Second compound 1 µM, first compound 0.00316 µM
  viability, T/C: 81.5%
Second compound 1 µM, first compound 0.00999 µM
  viability, T/C: 74.3%
Second compound 1 µM, first compound 0.0316 µM
  viability, T/C: 76%
Second compound 1 µM, first compound 0.0999 µM
  viability, T/C: 81.6%
Second compound 1 µM, first compound 0.316 µM
  viability, T/C: 64.8%
Second compound 3.16 µM, first compound 0.000999 µM
  viability, T/C: 72.1%
Second compound 3.16 µM, first compound 0.00316 µM
  viability, T/C: 70.8%
Second compound 3.16 µM, first compound 0.00999 µM
  viability, T/C: 76.5%
Second compound 3.16 µM, first compound 0.0316 µM
  viability, T/C: 71%
Second compound 3.16 µM, first compound 0.0999 µM
  viability, T/C: 73.8%
Second compound 3.16 µM, first compound 0.316 µM
  viability, T/C: 67.8%
Second compound 10 µM, first compound 0.000999 µM
  viability, T/C: 65%
Second compound 10 µM, first compound 0.00316 µM
  viability, T/C: 65%
Second compound 10 µM, first compound 0.00999 µM
  viability, T/C: 67.4%
Second compound 10 µM, first compound 0.0316 µM
  viability, T/C: 63.5%
Second compound 10 µM, first compound 0.0999 µM
  viability, T/C: 70.9%
Second compound 10 µM, first compound 0.316 µM
  viability, T/C: 63.9%
